Data taken from the NIST ThermoML archive (doi:10.1021/je034278t).
± gives the expanded uncertainty stated by the source.

Conditions: Liquid

vapor or sublimation pressure (298.15 K): 0.0202 ± 0.0046 kPa
vapor or sublimation pressure (303.15 K): 0.0339 ± 0.005 kPa
vapor or sublimation pressure (308.15 K): 0.0438 ± 0.0054 kPa
vapor or sublimation pressure (313.15 K): 0.0681 ± 0.0064 kPa
vapor or sublimation pressure (318.15 K): 0.0924 ± 0.0075 kPa
Structure (SMILES): CC[S+]([O-])CC [diethyl sulfoxide]
